Earlier results as cited in US11220528B2, “Compositions and methods for treating pulmonary hypertension” (Marshall University Research Corporation, priority 2017, dated 2022).

Settings: background statement

In the case of `CCCCC[C@H](O)/C=C/[C@@H]1[C@H]2C/C(=C/CCCC(=O)O)O[C@H]2C[C@H]1O` [Epoprostenol], the half-life is given as 3 to 5 min.
